Measurements as given in patent US20240390362A1, “METHODS OF TREATING ERYTHROPOIETIC PROTOPORPHYRIA, X-LINKED PROTOPORPHYRIA, OR CONGENITAL ERYTHROPOIETIC PORPHYRIA WITH A SOLID FORM OF BITOPERTIN” (Disc Medicine, Inc., priority 2021, published 2024).

Key:
Type in all cases: cell-based
[1] = test system: human cord blood-CD34+ cells; assay: CD34+ cells transduced with FECH shRNA lentivirus, differentiated to erythroid cells; flow cytometry of PPIX and surface markers; conditions: 100 nM, 9 days differentiation
Procedure: To investigate the effects of GlyT1 inhibitors in human hematopoietic stem cells with an EPP phenotype, lentiviral vectors expressing shRNA of FECH were constructed (Table 4) and transduced at 25 MOI into human cord blood-CD34+ cells purchased from Stemexpress.
Transduced CD34+ cells were differentiated in the presence of Bitopertin (100 nM) or DMSO control into erythroid cells for 9 days in StemSpan SFEM II media supplemented with StemSpan Erythroid Expansion Supplement. The erythroid cell antigen profile was analyzed using cytofluorimetric strategy with the following surface markers: CD71 (PE Mouse Anti-Human CD71, BD Biosciences), glycophoryin A (APC Mouse Anti-Human CD235a, BD Biosciences).

K562 clone-9 cells = assay: Cell viability by Vi-CELL XR Complete System in EPP K562 model; conditions: 96 hours incubation
Procedure: 900 μL of K562 clone-9 cells at 2×10^5 cells/mL in IMDM media with 10% FBS and 1% PS were plated into a 24-well plate. After 24-hour incubation, 100 μL of compound in DMSO/media was added in different concentration. The final concentration of DMSO was 0.1%. The compound was incubated for 96 hours at 37° C. Cell viability and cell count were measured by Vi-CELL XR Complete System. Finally, the effect of the compound on PPIX level was determined by flow cytometry.

clone 1-9 cells = assay: LC/MS/MS of 5-ALA, PPIX and heme levels in the EPP K562 cellular model

`C[C@H](Oc1ccc(S(C)(=O)=O)cc1C(=O)N1CCN(c2ncc(C(F)(F)F)cc2F)CC1)C(F)(F)F` [Bitopertin, [4-(3-fluoro-5-trifluoromethylpyridin-2-yl)piperazin-1-yl][5-methylsulfonyl-2-[((S)-2,2,2-trifluoro-1-methylethyl)oxy]phenyl]methanone] was tested, and the “effect on erythroid cell surface markers (CD71, glycophorin A)” value [1] was “no negative effects”, the “effect on cell viability” value (K562 clone-9 cells) was “no negative effects” and the “effect on Heme formation” value (clone 1-9 cells) was “minimal effect”.
